What was measured:
[1] = Cell-free vesicle/nanoparticle formation on chamber slides, microscopy; type: physicochemical
From the text: Based upon these measurements, we hypothesized that the antibody-protamine/free SMCC-protamine/siRNA complexes form outside cells and independently of a cellular context. […]
In detail, the nanostructures resemble a spheroid shape of micrometre size, formed by the three components mAB-SMCC-protamine, unconjugated SMCC-protamine and the Alexa488-labeled siRNA (FIG. 37). The structures are verified by fluorescence microscopy and laser scan confocal microscopy. It became evident that the spheroid structures are completely filled with Alexa488 signals from the siRNA compound.

HBL-1 DLBCL-cells = experiment: NSG-HBL1 xenograft model; type: in vivo; conditions: after treatment start, groups of 10 mice
Experimental: A. Tumor growth and treatment regimen of the NSG-HBL1 xenograft model. After transplantation, tumors were grown to 200 mm^3, before treatment was started twice a week intraperitoneally (i.p.). […] On every treatment day, twice a week, tumor volumes were assessed by caliper measurements. […] C. Survival curves of the treatment versus control groups.

HBL-1 cells = experiment: Colony formation assay, HBL-1; type: cell-based
Experimental: Next, we planned functional assays for identifying the effectivity of the antibody-inhibitor-complexes. DLBCL tumor cells were seeded in methylcellulose to form anchorage-free colony growth as a substitute marker for tumorigenicity. Assays were treated with combinations of antibody-inhibitor complexes and compared with appropriate control groups.
This colony-assay is used for quantification of anchorage-independent clonal cell growth and is a standard in vitro surrogate for tumorigenicity in vivo.

[2] = Bandshift assay, ibrutinib-Cy3.5 binding; conditions: free protamine-SMCC present; listed as Not protamine-SMCC depleted αCD20-mAB-preparations
[3] = Bandshift assay, SM-1/RF binding; conditions: free SMCC-protamine present; listed as Not SMCC-protamine depleted CD20-mAB-preparations
From the text: Subsequently, we performed the same experiments for the binding between SM-1/RF and two carrier systems, rituximab (CD20)-protamine and the reliable cetuximab (EGFR)-protamine.

siRNA = experiment: Bandshift (electro-mobility shift) assay, siRNA binding; conditions: preparation containing free SMCC-protamine
Experimental: We analysed the siRNA binding capacity of these different conjugations by our routine bandshift assays (FIG. 40A-F).
The principle of genetic fusion between cell-determining targeting moiety and the electrostatic siRNA binder protamine such as presented in Song et al. was evaluated by applying this strategy to in a variation to target e.g. leukemic blasts (FIG. 48). The well-known anti-CD33 receptor antibody gemtuzumab was expressed with (FIG. 51) and without a direct genetic fusion to protamine as a siRNA carrier.

nanoparticle/vesicle formation, cell-free ([1]; listed as uncharged ibrutinib)	ibrutinib-Cy3.5 complexed per mol of carrier mAB [2] [mol]	SM-1/RF complexed per mol of carrier mAB [3] [mol]	siRNA bound per mol of antibody carrier (siRNA) [mol]	siRNA bound per mol of antibody carrier (siRNA; listed as Anti-CD20 mAB conjugated to SMCC-protamine)	siRNA bound per mol of antibody carrier (siRNA; listed as rituximab-protamine)	Molecule	day by which all/last mice had to be sacrificed (HBL-1 DLBCL-cells) [days]	colony formation (HBL-1 cells)	Microscopic analysis [1]
not with uncharged ibrutinib	–	–	–	–	–	C=CC(=O)N1CCC[C@@H](n2nc(-c3ccc(Oc4ccccc4)cc3)c3c(N)ncnc32)C1 [ibrutinib, 1-[(3R)-3-[4-amino-3-(4-phenoxyphenyl)pyrazolo[3,4-d]pyrimidin-1-yl]piperidin-1-yl]prop-2-en-1-one]	20	much lesser degree	–
–	> 32	> 32	8	around 16 mol	about 8 mol	CD20-mAB rituximab-protamine/P conjugates: anti-CD20 antibody rituximab conjugated via sulfo-SMCC to protamine, containing free SMCC-protamine	–	–	No visible
–	–	–	–	–	–	rituximab: anti-CD20 antibody	≤ 16	only a mild effect on colony growth	–

— patent US20240316213A1, “ANTIBODY-PROTAMINE FUSIONS AS TARGETING COMPOUNDS OF A PROTAMINE-BASED NANOPARTICLE” (Universität Münster, priority 2021, published 2024)
